Reference: publication PMC6389703, “Identification of Biologically Active Ganoderma lucidum Compounds and Synthesis of Improved Derivatives That Confer Anti-cancer Activities in vitro” (Frontiers in Pharmacology, 2019)
Read-outs that look alike come from different tables or passages of the source.

How the values were obtained:
[1] = tested on: various breast cancer cell lines; assay: Cell viability (CellTiter-Glo or PI staining), various breast cancer cell lines; assay type: cell-based, human; conditions: for EC50: Homo sapiens, 72-h treatment, CellTiter-Glo or PI staining
Protocol: (§1) Either 1 × 10^3–4.8 × 10^3 or 4 × 10^2–1.2 × 10^3 cells were seeded to each well of 96- or 384-well white polystyrene flat-bottomed plates (3610 or 8804BC, Corning) in 100 μL or 30 μL media per well, respectively. The concentrations used were experimentally determined to ensure logarithmic growth during the duration of the experiment and prevent adverse effects on cell growth by DMSO exposure. The plates were incubated at 37°C in 5% CO2 for 24 h before treatment. Stock solutions of test compounds (10 mM in DMSO) in nine 3-fold serial dilutions were dispensed via pintool (Biomek). The final concentration of DMSO was 0.3% (v/v) in each well. The plates were incubated for 72 h at 37°C in 5% CO2 and then quenched with CellTiter-Glo® reagent (50 μL/well in 96-well plate, 30 μL/well in 384-well plate) at RT. The positive controls included staurosporine (10 μM), gambogic acid (10 μM), and a toxic quinoline generated in-house. Plates were then incubated at RT for 20 min and centrifuged at 1000 rpm for 1 min. The cytotoxicity assay was performed by using the CellTiter-Glo® Luminescent Cell Viability Assay kit (G7570, Promega, Madison, WI, United States) according to the manufacturer’s instructions. Luminescence was recorded in an Envision plate reader (PerkinElmer).
(§2) Cell viability assays (MTT or PI staining assays) in SUM-149, SUM-190, MDA-MB-231, and MCF10A cells were performed as we previously described ([Suarez-Arroyo et al., 2016]).
(§3) For the CTG assay, 3 or 4 replicate assays were conducted for each experimental condition, and a minimum of 3 independent experiments were conducted for cellular assays. The mean luminescence of each experimental treatment group was normalized as a percentage of the mean intensity of untreated controls. EC50 values (μM) were calculated by Pipeline Pilot Software (Accelrys, Enterprise Platform, San Diego, CA, United States). EC50 values (μM) from the viability assay were calculated from dose response curve-fitting via non-linear regression by using GraphPad Prism (Version 7.0, San Diego, CA, United States). For cell viability, colony formation, cell-cycle progression, cell death, and western blot assays, the analyses were performed via one-way or two-way ANOVA with post-testing for each condition (concentration, cell cycle stage, apoptotic event, cell line) by using GraphPad Prism.

[2] = tested on: BJ cells; assay: cells; assay type: cell-based
Protocol: as §1, §3

[3] = tested on: SUM-149 cells; assay: ApoTox-Glo Triplex assay, SUM-149; assay type: cell-based, human; conditions: SUM-149, 24 h
Protocol: (§4) Cells (9.5 × 10^4/well in 75 μL of fresh medium) were dispensed in 96-well black flat bottom (8807BC, Corning) plates. The cells were incubated for 12 h at 37°C and then treated with compounds (25 μL) for 24 h. DMSO was used as a negative control, and staurosporine was used as the positive control. […] Then, the Caspase-Glo® 3/7 Reagent was added; plates were mixed briefly by orbital shaking (300-500 rpm for ∼30 s), followed by an additional 30 min incubation at RT. Then luminescence, which correlates with caspase 3/7 activation, was recorded with a plate reader to […] apoptosis induction.

[4] = tested on: MDA-MB-231 cells; assay: ApoTox-Glo Triplex assay, MDA-MB-231; assay type: cell-based, human; conditions: MDA-MB-231, 24 h
Protocol: as §4

[5] = tested on: MDA-MB-231 cells; assay: De novo in-cell protein synthesis (click assay); assay type: cell-based, human; conditions: 2 h; EP 20 μM
Protocol: First, 2.5 × 10^4 cells/well were seeded in 8-well μ-slides (Ibidi®, #80826) and incubated at 37°C for 12 h. The cells were treated with vehicle, compounds Ganoderic acid A or EP, or cycloheximide (positive control) for 2 h to determine protein synthesis as nascent proteins generated using Biovision’s EZClick^TM Global Protein Synthesis Assay Kit, (#K715-100, Milpitas, CA, United States). The assay includes a robust chemical method based on an alkyne containing o-propargyl-puromycin (OP-puro) probe, which stops translation by forming covalent conjugates with nascent polypeptide chains. Truncated polypeptides are rapidly turned over by the proteasome and can be detected based on the subsequent click reaction with a fluorescent azide. The reaction was conducted according to the manufacturer’s protocol. Cells were imaged at 20× with a Nikon C2 scanning confocal microscope, and the whole image montage was quantified by using Gen5 Software and Lionheart^TM FX Automated Microscope (BioTek, Winooski, VT, United States).

[6] = tested on: MCF-7 cells; assay: ROS measurement (CellROX green), MCF-7; assay type: cell-based, human; conditions: for ROS increase (fold): GA-01, ergosterol, 5,6-dehydroergosterol 50 µM, EP 20 µM; for ROS formation reduction when co-treated with NAC: NAC 100 µM, TBHP 100 µM
Protocol: (§5) SUM-149 or MDA-MB-231 were plated in 96-well plates at a density of 2 × 10^4 and 1 × 10^4 cells/well, respectively, in black 96-well clear bottom tissue culture plates and incubated for 24 h at 37°C. The mRuby-Mito-7 plasmid was obtained from Addgene (#55874 from Michael Davidson). A stable clone of MCF-7 was generated by using Fugene 6 (Roche) to transfect cells (2 × 10^5) with plasmid (2.0 μg) under neomycin selection. A stable cell line was selected by using G418 (300 μg/mL) for 2 weeks, sorted by flow cytometry, and maintained under G418 thereafter. Transfected MCF-7 cells were plated at a density of 2 × 10^4 cells/well in black 96-well clear bottom tissue culture plates and incubated overnight at 37°C. To test for ROS formation and remove background, cells were replenished with fresh PBS with 2% FBS and treated with the desired compounds for 1 h at 37°C. DMSO (0.5%) was used as a negative control, while Menadione (Mena, at 10 μM) or t-Butyl hydroperoxide (TBHP) at 100 μM final concentration were used as a positive control. To evaluate the compounds’ effects on ROS formation inhibition, the free radical scavenger N-acetyl cysteine (NAC) was used. Cells were treated with or without NAC (500 μM or 100 μM) for 1 h, then CellROX® green reagent (Molecular Probes #C10444) was added to a final concentration of 5 μM, and cells were incubated for an additional 30 min at 37°C. Cells were then washed 2× with PBS, followed by fixation with 4% paraformaldehyde (v/v) for 15 min, and 2 more washes with PBS. Fluorescence intensity was measured in a Clariostar® plate reader (BMG LABTECH, Cary, NC, United States) at 535 nm.

[7] = tested on: MDA-MB-231 cells; assay: ROS measurement (CellROX green), MDA-MB-231; assay type: cell-based, human; conditions: NAC 500 μM; menadione 10 μM
Protocol: as §5, with “Cells were treated with or without NAC (500 μM or 100 μM) for 1 h, then CellROX® green reagent (Molecular Probes #C10444) was added to a final concentration of 5 μM, and cells were incubated for an additional 30 min at 37°C. Cells were then washed 2× with PBS, followed by fixation with 4% paraformaldehyde (v/v) for 15 min, and 2 more washes with PBS.” left out

[8] = tested on: SUM-149 cells; assay: ROS measurement (CellROX green), SUM-149; assay type: cell-based, human; conditions: NAC 500 μM; EP 20 μM, menadione 10 μM
Protocol: as §5

[9] = tested on: evaluated cell lines; assay: Cell viability, evaluated cell lines (palmitic acid); assay type: cell-based; conditions: tested concentration ≤100μM
Protocol: Either 1 × 10^3–4.8 × 10^3 or 4 × 10^2–1.2 × 10^3 cells were seeded to each well of 96- or 384-well white polystyrene flat-bottomed plates (3610 or 8804BC, Corning) in 100 μL or 30 μL media per well, respectively. The concentrations used were experimentally determined to ensure logarithmic growth during the duration of the experiment and prevent adverse effects on cell growth by DMSO exposure. The plates were incubated at 37°C in 5% CO2 for 24 h before treatment. Stock solutions of test compounds (10 mM in DMSO) in nine 3-fold serial dilutions were dispensed via pintool (Biomek). The final concentration of DMSO was 0.3% (v/v) in each well. […] Luminescence was recorded in an Envision plate reader (PerkinElmer). […]
as §3, with “For cell viability, colony formation, cell-cycle progression, cell death, and western blot assays, the analyses were performed via one-way or two-way ANOVA with post-testing for each condition (concentration, cell cycle stage, apoptotic event, cell line) by using GraphPad Prism.” left out

[10] = tested on: SUM-149 cells; assay: Cell viability assay, SUM-149; assay type: cell-based, human
Protocol: as §1, §2, §3

[11] = physchem; conditions: organic solvent or mixture

C[C@H](CC(=O)C[C@@H](C)[C@H]1C[C@H](O)[C@@]2(C)C3=C(C(=O)C[C@]12C)[C@@]1(C)CCC(=O)C(C)(C)[C@@H]1C[C@@H]3O)C(=O)O [GA-01, ganoderic acid A]
EC50 [1]: > 50 µM
cytotoxic effects in normal BJ cells ([2]; at the concentrations tested): did not induce cytotoxic effects
caspase 3/7 activity [3]: increase caspase 3/7 activity
viability (GF-AFC) [3]: decrease viability
caspase 3/7 activity [4]: increase caspase 3/7 activity
viability (GF-AFC) [4]: decrease viability
de novo protein synthesis inhibition [5]: do not inhibit
ROS increase (fold) [6]: at least a twofold
ROS formation reduction when co-treated with NAC [6]: 9–25%

CC1=CC(=O)c2ccccc2C1=O [menadione, Menadione, reference compound]
reduction in ROS formation in the presence of NAC [7]: about 20%
reduction in ROS formation in the presence of NAC [8]: about 20%

CCCCCCCCCCCCCCCC(=O)O [palmitic acid]
EC50 ([2]; Homo sapiens, BJ, Cell Titer Glo, 72-h treatment): > 100 µM
activity in the evaluated cell lines [9]: did not show activity
activity in the evaluated cell lines ([9]; listed as Palmitic acid): No detected biological activity

CC(C)(C)OO [TBHP, t-Butyl hydroperoxide, reference compound]
ROS formation reduction when co-treated with NAC [6]: ~50%

CC(C)[C@@H](C)/C=C/[C@@H](C)[C@H]1CC[C@H]2C3=CC=C4C[C@@H](O)CC[C@]4(C)[C@H]3CC[C@]12C [ergosterol]
EC50 [1]: > 50 µM
concentration from which cancer cell viability is significantly reduced ([1]; breast cancer cellular models): 64 µM
concentration at which SUM-149 cell viability is significantly reduced ([10]; 72 h): 64 µM
cytotoxic effects in normal BJ cells [2]: did not induce cytotoxic effects
ROS increase (fold) [6]: at least a twofold
ROS formation reduction when co-treated with NAC [6]: 9–25%

CC(C)[C@@H](C)/C=C/[C@@H](C)[C@H]1CC[C@H]2C34C=CC5(C[C@@H](OC(=O)NS(=O)(=O)c6ccccc6)CC[C@]5(C)C3CC[C@]12C)OO4 (stereo partly shown) [EP sulfonamide, ergosterol peroxide sulfonamide]
EC50 ([10]; Homo sapiens, SUM149, SUM-149, Figure 10A, read-out: EC50, cancer cell viability (derivatives)): 12 µM
cytotoxic effects in normal BJ cells ([2]; at the concentrations tested): minimal
solubility [11]: ≥ 10 mM

CC(C)C(C)C=CC(C)C1CCC2C3=CCC4CC(O)CCC4(C)C3CCC21C (stereo not shown)
EC50 [1]: > 50 µM
cytotoxic effects in normal BJ cells [2]: did not induce cytotoxic effects
ROS increase (fold) [6]: at least a twofold
ROS formation reduction when co-treated with NAC [6]: 9–25%
